Measurements taken from ChEMBL document CHEMBL3627617, “Investigation of new 2-aryl substituted Benzothiopyrano[4,3-d]pyrimidines as kinase inhibitors targeting vascular endothelial growth factor receptor 2” (Eur J Med Chem, 2015).

Experiments:
HL-60 = test: Antiproliferative activity against human HL60 cells assessed as growth inhibition; assay type: functional
HeLa = test: Antiproliferative activity against human HeLa cells assessed as cell viability after 72 hrs by trypan blue assay; assay type: functional
A-431 = test: Antiproliferative activity against human A431 cells assessed as cell viability after 72 hrs by trypan blue assay; assay type: functional; conditions: A-431, 72 h
MSTO-211H = test: Antiproliferative activity against human MSTO-211H cells assessed as cell viability after 72 hrs by trypan blue assay; assay type: functional
[1] = target: Vascular endothelial growth factor receptor 2 (Homo sapiens, UniProt P35968); test: Inhibition of human KDR incubated for 50 mins by omnia tyr peptide 8 substrate based fluorescence assay
Chain of Vascular endothelial growth factor receptor 2 (P35968 whole entry): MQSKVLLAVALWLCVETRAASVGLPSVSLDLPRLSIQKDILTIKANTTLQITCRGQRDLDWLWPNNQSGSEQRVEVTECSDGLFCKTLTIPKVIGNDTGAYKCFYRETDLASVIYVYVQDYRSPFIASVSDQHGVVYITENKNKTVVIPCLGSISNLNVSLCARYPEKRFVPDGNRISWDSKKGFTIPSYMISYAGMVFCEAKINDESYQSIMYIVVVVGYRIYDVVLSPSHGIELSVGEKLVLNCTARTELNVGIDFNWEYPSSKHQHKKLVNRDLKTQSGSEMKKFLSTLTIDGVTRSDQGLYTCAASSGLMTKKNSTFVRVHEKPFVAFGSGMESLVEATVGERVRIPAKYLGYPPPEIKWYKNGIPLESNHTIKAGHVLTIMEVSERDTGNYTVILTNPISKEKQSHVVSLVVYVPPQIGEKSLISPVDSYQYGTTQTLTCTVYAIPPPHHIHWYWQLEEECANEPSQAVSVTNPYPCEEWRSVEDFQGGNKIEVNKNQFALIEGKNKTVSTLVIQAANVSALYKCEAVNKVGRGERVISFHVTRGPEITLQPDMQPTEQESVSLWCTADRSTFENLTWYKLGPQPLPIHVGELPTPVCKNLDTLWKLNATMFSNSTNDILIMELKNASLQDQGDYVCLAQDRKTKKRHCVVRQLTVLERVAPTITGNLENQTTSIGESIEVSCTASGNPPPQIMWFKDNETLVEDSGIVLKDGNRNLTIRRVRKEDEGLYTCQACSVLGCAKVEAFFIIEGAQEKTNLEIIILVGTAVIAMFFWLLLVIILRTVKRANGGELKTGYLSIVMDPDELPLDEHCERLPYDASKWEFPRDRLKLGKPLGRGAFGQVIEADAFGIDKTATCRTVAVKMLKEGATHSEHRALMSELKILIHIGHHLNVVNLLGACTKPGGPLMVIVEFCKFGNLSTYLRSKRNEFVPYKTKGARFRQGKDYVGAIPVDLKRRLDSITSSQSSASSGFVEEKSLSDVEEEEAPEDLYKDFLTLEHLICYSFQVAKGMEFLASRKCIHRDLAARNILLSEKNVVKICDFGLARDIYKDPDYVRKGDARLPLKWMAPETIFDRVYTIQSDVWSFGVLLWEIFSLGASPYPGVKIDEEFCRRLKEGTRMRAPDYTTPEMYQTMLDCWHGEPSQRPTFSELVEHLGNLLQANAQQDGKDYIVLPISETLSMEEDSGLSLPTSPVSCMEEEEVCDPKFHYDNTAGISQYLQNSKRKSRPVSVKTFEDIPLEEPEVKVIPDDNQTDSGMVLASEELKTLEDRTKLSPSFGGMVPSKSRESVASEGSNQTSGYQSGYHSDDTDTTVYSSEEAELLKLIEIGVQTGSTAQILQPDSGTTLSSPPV

HUVEC = test: Antiproliferative activity against human HUVEC cells assessed as reduction in cell viability after 72 hrs by trypan blue assay; assay type: functional
Aorta [2] = test: Anti-angiogenic activity in rat aortic explant assessed as microvessel sprouting inhibition at 100 nM incubated for 7 days by rat aortic ring assay; assay type: functional; conditions: 168 h
Aorta [3] = test: Anti-angiogenic activity in rat aortic explant assessed as microvessel sprouting inhibition at 1 uM incubated for 7 days by rat aortic ring assay; assay type: functional; conditions: 168 h
Aorta [4] = test: Anti-angiogenic activity in rat aortic explant assessed as microvessel sprouting inhibition at 5 uM incubated for 7 days by rat aortic ring assay; assay type: functional; conditions: 168 h
Aorta [5] = test: Anti-angiogenic activity in rat aortic explant assessed as microvessel sprouting inhibition at 10 uM incubated for 7 days by rat aortic ring assay; assay type: functional; conditions: 168 h
[6] = target: RAC-alpha serine/threonine-protein kinase (Homo sapiens) (UniProt P31749); test: Inhibition of human Akt1 at 10 uM by kinase inhibition assay
[7] = target: T1, Aurora kinase A (Homo sapiens) (UniProt O14965); test: Inhibition of human AurA kinase at 10 uM by kinase inhibition assay
T1 sequence (whole entry): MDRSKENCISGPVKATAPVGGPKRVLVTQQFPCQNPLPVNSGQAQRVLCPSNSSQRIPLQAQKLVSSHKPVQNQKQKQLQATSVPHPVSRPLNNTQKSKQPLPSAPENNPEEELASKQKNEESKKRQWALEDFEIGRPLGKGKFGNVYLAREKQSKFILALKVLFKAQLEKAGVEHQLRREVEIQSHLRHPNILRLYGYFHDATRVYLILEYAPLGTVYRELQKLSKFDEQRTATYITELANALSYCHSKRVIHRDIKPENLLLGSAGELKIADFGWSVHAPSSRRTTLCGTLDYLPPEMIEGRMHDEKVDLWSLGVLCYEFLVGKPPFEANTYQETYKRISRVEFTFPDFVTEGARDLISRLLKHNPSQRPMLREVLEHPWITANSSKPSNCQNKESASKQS

[8] = target: Cyclin-dependent kinase 1 (Homo sapiens) (UniProt P06493); test: Inhibition of human CDK1 at 10 uM by kinase inhibition assay
Chain of Cyclin-dependent kinase 1 (Homo sapiens) (P06493 whole entry, looked up): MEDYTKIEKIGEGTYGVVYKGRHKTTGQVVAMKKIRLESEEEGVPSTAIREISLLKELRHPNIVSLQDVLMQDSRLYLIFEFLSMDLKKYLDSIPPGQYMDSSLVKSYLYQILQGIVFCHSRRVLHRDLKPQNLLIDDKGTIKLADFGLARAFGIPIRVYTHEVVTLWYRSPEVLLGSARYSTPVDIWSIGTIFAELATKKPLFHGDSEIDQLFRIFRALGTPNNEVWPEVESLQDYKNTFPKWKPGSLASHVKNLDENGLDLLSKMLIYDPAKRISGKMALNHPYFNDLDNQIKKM

[9] = target: Mitogen-activated protein kinase 3 (Homo sapiens) (UniProt P27361); test: Inhibition of human ERK1 at 10 uM by kinase inhibition assay
[10] = target: Focal adhesion kinase 1 (Homo sapiens) (UniProt Q05397); test: Inhibition of human FAK at 10 uM by kinase inhibition assay
Chain of Focal adhesion kinase 1 (Homo sapiens) (Q05397 2-1052 limits assumed): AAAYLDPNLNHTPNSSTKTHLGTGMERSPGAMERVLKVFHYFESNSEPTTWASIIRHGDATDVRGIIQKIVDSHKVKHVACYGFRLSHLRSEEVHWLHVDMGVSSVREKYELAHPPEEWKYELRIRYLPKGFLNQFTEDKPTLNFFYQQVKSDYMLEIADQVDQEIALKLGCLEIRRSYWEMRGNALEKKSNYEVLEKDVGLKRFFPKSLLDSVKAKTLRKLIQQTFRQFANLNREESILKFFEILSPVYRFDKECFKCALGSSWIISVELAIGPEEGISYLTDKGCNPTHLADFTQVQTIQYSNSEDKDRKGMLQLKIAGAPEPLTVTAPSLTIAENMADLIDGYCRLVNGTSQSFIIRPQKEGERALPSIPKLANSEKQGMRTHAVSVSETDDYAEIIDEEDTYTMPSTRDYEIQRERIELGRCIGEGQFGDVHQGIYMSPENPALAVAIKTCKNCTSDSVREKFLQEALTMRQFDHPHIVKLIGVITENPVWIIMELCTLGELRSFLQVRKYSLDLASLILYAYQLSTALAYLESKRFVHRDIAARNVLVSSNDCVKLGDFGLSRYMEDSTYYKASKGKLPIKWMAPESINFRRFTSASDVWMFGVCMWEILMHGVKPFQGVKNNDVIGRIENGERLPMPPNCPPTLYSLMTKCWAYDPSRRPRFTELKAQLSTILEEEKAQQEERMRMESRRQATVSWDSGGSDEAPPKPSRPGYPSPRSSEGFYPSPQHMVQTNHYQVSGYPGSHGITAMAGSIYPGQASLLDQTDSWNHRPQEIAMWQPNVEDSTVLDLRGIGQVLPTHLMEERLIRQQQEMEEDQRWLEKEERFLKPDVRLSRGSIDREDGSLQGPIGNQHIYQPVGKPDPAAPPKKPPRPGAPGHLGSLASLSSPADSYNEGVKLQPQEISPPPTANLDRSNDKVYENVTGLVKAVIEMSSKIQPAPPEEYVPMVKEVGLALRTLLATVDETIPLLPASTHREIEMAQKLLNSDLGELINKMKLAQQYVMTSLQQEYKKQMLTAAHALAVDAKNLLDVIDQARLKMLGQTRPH

[11] = target: Dual specificity mitogen-activated protein kinase kinase 1 (Homo sapiens) (UniProt Q02750); test: Inhibition of human MEK1 at 10 uM by kinase inhibition assay
Chain of Dual specificity mitogen-activated protein kinase kinase 1 (Homo sapiens) (Q02750 whole entry): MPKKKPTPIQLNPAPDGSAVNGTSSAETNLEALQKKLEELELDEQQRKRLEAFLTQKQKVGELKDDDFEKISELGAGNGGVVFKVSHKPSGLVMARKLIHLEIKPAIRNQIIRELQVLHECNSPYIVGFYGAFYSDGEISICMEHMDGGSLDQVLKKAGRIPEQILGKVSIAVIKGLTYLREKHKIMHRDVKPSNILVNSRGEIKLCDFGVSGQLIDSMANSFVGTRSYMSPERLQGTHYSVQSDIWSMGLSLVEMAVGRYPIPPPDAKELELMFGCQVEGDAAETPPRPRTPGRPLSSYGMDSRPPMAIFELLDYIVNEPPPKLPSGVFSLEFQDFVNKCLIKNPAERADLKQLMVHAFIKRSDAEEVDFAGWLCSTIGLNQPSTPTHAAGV

[12] = target: Platelet-derived growth factor receptor beta (Homo sapiens) (UniProt P09619); test: Inhibition of human PDGFRbeta at 10 uM by kinase inhibition assay
[13] = target: RAF proto-oncogene serine/threonine-protein kinase (Homo sapiens) (UniProt P04049); test: Inhibition of human RAF1 at 10 uM by kinase inhibition assay
Chain of RAF proto-oncogene serine/threonine-protein kinase (Homo sapiens) (P04049 whole entry): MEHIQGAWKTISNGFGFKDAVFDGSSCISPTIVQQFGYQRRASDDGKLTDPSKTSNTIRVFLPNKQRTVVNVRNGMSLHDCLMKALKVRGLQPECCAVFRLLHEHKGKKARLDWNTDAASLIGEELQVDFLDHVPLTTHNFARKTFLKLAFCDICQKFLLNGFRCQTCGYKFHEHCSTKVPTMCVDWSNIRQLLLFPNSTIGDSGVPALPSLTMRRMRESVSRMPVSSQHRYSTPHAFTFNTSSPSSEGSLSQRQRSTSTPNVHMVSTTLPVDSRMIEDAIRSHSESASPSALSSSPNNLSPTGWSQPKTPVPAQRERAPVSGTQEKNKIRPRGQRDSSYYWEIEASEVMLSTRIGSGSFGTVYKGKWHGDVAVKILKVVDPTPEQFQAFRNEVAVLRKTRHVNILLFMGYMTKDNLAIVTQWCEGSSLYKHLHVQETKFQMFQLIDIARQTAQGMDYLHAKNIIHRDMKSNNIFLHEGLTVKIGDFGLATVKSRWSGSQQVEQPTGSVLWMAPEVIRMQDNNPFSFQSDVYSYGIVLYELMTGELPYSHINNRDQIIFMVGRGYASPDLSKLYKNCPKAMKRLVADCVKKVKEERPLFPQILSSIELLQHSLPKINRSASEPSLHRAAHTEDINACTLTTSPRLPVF

[14] = target: Rho-associated protein kinase 1 (Homo sapiens) (UniProt Q13464); test: Inhibition of human ROCK1 at 10 uM by kinase inhibition assay
Chain of Rho-associated protein kinase 1 (Homo sapiens) (Q13464 2-1354 limits assumed): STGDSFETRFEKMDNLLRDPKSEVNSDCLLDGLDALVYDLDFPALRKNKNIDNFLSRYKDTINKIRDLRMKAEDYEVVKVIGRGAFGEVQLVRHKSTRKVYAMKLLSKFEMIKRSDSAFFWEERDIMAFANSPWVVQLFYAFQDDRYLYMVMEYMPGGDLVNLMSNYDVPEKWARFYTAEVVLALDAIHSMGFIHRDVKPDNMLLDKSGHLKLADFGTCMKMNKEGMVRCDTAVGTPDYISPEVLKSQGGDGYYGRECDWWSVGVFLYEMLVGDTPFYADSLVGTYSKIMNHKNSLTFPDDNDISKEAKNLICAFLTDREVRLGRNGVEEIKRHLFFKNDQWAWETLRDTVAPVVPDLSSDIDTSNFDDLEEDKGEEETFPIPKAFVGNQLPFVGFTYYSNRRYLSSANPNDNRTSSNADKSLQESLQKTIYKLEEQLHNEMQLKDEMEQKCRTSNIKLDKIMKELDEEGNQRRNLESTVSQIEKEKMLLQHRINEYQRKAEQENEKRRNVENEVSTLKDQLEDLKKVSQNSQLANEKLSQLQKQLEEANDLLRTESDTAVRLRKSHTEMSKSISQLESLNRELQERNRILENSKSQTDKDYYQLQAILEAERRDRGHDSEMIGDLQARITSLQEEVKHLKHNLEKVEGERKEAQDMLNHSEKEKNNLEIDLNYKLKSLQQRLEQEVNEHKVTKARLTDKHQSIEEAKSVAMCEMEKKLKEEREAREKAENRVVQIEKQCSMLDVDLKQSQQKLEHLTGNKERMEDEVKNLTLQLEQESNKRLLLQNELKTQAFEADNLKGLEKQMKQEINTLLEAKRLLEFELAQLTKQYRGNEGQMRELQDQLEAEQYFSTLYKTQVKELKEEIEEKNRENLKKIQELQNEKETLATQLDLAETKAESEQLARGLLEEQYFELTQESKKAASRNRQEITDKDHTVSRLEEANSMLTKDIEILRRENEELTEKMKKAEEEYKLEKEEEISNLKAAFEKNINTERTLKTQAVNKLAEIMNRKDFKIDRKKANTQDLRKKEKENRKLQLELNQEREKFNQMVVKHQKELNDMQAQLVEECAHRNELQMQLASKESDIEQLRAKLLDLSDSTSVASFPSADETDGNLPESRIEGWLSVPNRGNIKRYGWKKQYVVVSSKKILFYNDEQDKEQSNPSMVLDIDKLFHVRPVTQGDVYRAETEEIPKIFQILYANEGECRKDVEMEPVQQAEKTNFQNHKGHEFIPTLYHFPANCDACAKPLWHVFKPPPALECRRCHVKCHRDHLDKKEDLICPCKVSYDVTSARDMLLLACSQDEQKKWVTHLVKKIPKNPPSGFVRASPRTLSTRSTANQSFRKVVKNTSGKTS

[15] = target: Proto-oncogene tyrosine-protein kinase Src (Homo sapiens) (UniProt P12931); test: Inhibition of human Src kinase at 10 uM by kinase inhibition assay
[16] = target: Epidermal growth factor receptor (Homo sapiens, UniProt P00533)

GI50 (HeLa) | GI50 (A-431) | Structure (SMILES) | GI50 (MSTO-211H) | GI50 (HUVEC) | further results
 |  | COc1ccc2c(c1)SCc1ncc(-c3ccccc3)nc1-2 |  |  | GI50 (HL-60): 7.15 µM
15.6 µM | > 20 µM | Clc1ccc(Nc2ncc3c(n2)-c2ccccc2SC3)cc1 | 11.5 µM | 7.3 µM | IC50 [1]: > 50 µM
> 20 µM | > 20 µM | COc1ccc(-c2ncc3c(n2)-c2ccc(Cl)cc2SC3)cc1 | > 20 µM | 4.7 µM | 
> 20 µM | > 20 µM | COc1ccc2c(c1)SCc1cnc(Nc3ccc(Cl)cc3)nc1-2 | > 20 µM | > 20 µM | IC50 [1]: > 50 µM
10.2 µM | > 20 µM | c1ccc(Nc2ncc3c(n2)-c2ccccc2SC3)cc1 | 11.7 µM | 2.4 µM | IC50 [1]: 8.2 µM
0.83 µM | 0.96 µM | COc1ccc(Nc2ncc3c(n2)-c2ccc(OC)cc2SC3)cc1 | 1.08 µM | 0.74 µM | IC50 [1]: 17.5 µM
> 20 µM | > 20 µM | COc1ccc(-c2ncc3c(n2)-c2ccccc2SC3)cc1 | > 20 µM | 12 µM | 
> 20 µM | > 20 µM | COc1ccc(CNc2ncc3c(n2)-c2ccccc2SC3)cc1 | > 20 µM | > 20 µM | 
> 20 µM | > 20 µM | Clc1ccc(-c2ncc3c(n2)-c2ccccc2SC3)cc1 | > 20 µM | 11.3 µM | 
> 20 µM | > 20 µM | COc1ccc2c(c1)SCc1cnc(-c3ccc(Cl)cc3)nc1-2 | > 20 µM | > 20 µM | 
> 20 µM | > 20 µM | Clc1ccc2c(c1)SCc1cnc(NCc3ccccc3)nc1-2 | > 20 µM | 15.1 µM | 
0.7 µM | 0.96 µM | COc1ccc(Nc2ncc3c(n2)-c2ccccc2SC3)cc1 | 1.08 µM | 0.45 µM | inhibition at 0.1 µM (Aorta [2]): -8%; inhibition at 1 µM (Aorta [3]): 9%; inhibition at 5 µM (Aorta [4]): 95%; inhibition at 10 µM (Aorta [5]): 96%; inhibition [6]: 1.4%; inhibition [7]: 71.7%; inhibition [8]: 84.8%; inhibition [9]: -1.8%; inhibition [10]: 47.3%; inhibition [11]: 21.6%; inhibition [12]: 42%; inhibition [13]: 4.1%; inhibition [14]: -0.4%; inhibition [15]: 12%
1.5 µM | 2.2 µM | Clc1ccc(Nc2ncc3c(n2)-c2ccc(Cl)cc2SC3)cc1 | 1.6 µM | 0.35 µM | IC50 [16]: 45.7 µM; IC50 [1]: 5.6 µM; inhibition at 0.1 µM (Aorta [2]): -0.5%; inhibition at 1 µM (Aorta [3]): 15%; inhibition at 5 µM (Aorta [4]): 88%; inhibition at 10 µM (Aorta [5]): 98%; inhibition [6]: 3%; inhibition [7]: 0%; inhibition [8]: -3.2%; inhibition [9]: -4.3%; inhibition [10]: -0.9%; inhibition [11]: 5.9%; inhibition [12]: 2.5%; inhibition [13]: -1.5%; inhibition [14]: -5.6%; inhibition [15]: 8.8%
> 20 µM | > 20 µM | Clc1ccc2c(c1)SCc1cnc(-c3ccccc3)nc1-2 | > 20 µM | 2.3 µM | 
> 20 µM | > 20 µM | Clc1ccc(CNc2ncc3c(n2)-c2ccc(Cl)cc2SC3)cc1 | > 20 µM | 17 µM | 
> 20 µM | > 20 µM | Clc1ccc(CNc2ncc3c(n2)-c2ccccc2SC3)cc1 | > 20 µM | 12.3 µM | 
> 20 µM | > 20 µM | COc1ccc(CNc2ncc3c(n2)-c2ccc(Cl)cc2SC3)cc1 | > 20 µM | 12 µM | 
> 20 µM | 6.5 µM | COc1ccc2c(c1)SCc1cnc(-c3ccccc3)nc1-2 | 11.9 µM | 2.9 µM | IC50 [16]: 4.72 µM; inhibition [6]: -4%; inhibition [7]: -2.2%; inhibition [8]: -4.2%; inhibition [9]: -1.7%; inhibition [10]: 11.6%; inhibition [11]: 14.6%; inhibition [12]: -6%; inhibition [13]: 2.6%; inhibition [14]: -6.3%; inhibition [15]: 0.3%
> 20 µM | > 20 µM | COc1ccc(CNc2ncc3c(n2)-c2ccc(OC)cc2SC3)cc1 | > 20 µM | > 20 µM | 
> 20 µM | > 20 µM | c1ccc(CNc2ncc3c(n2)-c2ccccc2SC3)cc1 | > 20 µM | > 20 µM | 
> 20 µM | > 20 µM | Clc1ccc2c(c1)SCc1cnc(Nc3ccccc3)nc1-2 | > 20 µM | > 20 µM | IC50 [1]: > 50 µM
> 20 µM | > 20 µM | COc1ccc(-c2ncc3c(n2)-c2ccc(OC)cc2SC3)cc1 | > 20 µM | 4.8 µM | 
2.1 µM | 5.8 µM | COc1ccc(Nc2ncc3c(n2)-c2ccc(Cl)cc2SC3)cc1 | > 20 µM | 16.4 µM | IC50 [16]: 21.6 µM; IC50 [1]: > 50 µM
20.1 µM | > 20 µM | COc1ccc2c(c1)SCc1cnc(Nc3ccccc3)nc1-2 | 15 µM | 4.3 µM | IC50 [1]: > 50 µM
> 20 µM | > 20 µM | c1ccc(-c2ncc3c(n2)-c2ccccc2SC3)cc1 | > 20 µM | 4 µM | 
 |  | Cc1cc(C)c(/C=C2\C(=O)Nc3ccccc32)[nH]1 [SEMAXANIB] |  | 13.6 µM | inhibition at 0.1 µM (Aorta [2]): -12%; inhibition at 1 µM (Aorta [3]): -2%; inhibition at 5 µM (Aorta [4]): 72%; inhibition at 10 µM (Aorta [5]): 100%
> 20 µM | > 20 µM | Clc1ccc(-c2ncc3c(n2)-c2ccc(Cl)cc2SC3)cc1 | > 20 µM | 15.3 µM | 
> 20 µM | > 20 µM | COc1ccc2c(c1)SCc1cnc(NCc3ccccc3)nc1-2 | > 20 µM | > 20 µM | 
> 20 µM | > 20 µM | COc1ccc2c(c1)SCc1cnc(NCc3ccc(Cl)cc3)nc1-2 | > 20 µM | > 20 µM | 
